In this assay the target is T1, cIAP1 (BIR3) (Homo sapiens, UniProt Q13490).
T1 construct: human cIAP1 (BIR3, Leu250-Gly350); made in house; host or cells: E. coli
The assay is described as follows: TR-FRET IAP/Smac peptide interaction assay, cIAP1. The conditions noted are these: FITC-Smac probe, read-out: Binding affinity IC50 cIAP1. How it is done:
The TR-FRET assay was carried out using 384-well white flat-bottom plates (Greiner Bio-One) and the signal was measured using an EnVision Multilabel Plate Reader (PerkinElmer, Waltham, MA, USA). The solution in each well was excited with a laser (λ = 337 nm) reflected by a dichroic mirror (D400/D505 (Perkin Elmer) and fluorescence from terbium (Tb) and BODIPY or FITC was detected through two emission filters (CFP 486 (Perkin Elmer) for Tb and Emission 515 (Perkin Elmer) for BODIPY and FITC). The assay buffer used in this study was composed of 50 mM HEPES (pH 7.2–7.5), 10 mM MgCl2, 1 mM EGTA, 0.1 mM DTT and 0.01% (v/v) Brij^(R) 35. All assays were carried out at room temperature in triplicate or quadruplicate formats.
The half maximal inhibitory concentration (IC50) of test compounds was calculated by fitting the data with the logistic equation using GraphPad Prism 5 (GraphPad Software, Inc., La Jolla, CA, USA) or XLfit (IDBS, Guildford, UK).
His-IAP proteins (XIAP, cIAP1 or cIAP2), FITC-Smac, Tb-SA and the biotinylated anti-His antibody (Life Technologies) were mixed in the assay buffer and incubated for over 1 h at room temperature before addition to the assay plate. […] After 1 h incubation at room temperature, the TR-FRET signal was measured using the EnVision Multilabel Plate Reader. […]
Background: In TR-FRET formats the signal depends on donor and acceptor labels being close together.

Experimental findings from paper PMC6131351, “Pharmacological difference between degrader and inhibitor against oncogenic BCR-ABL kinase” (Scientific Reports, 2018) are described below.

A word on the IC50: it is the concentration needed to halve the response being measured.

T1 sequence (Q13490 250-350): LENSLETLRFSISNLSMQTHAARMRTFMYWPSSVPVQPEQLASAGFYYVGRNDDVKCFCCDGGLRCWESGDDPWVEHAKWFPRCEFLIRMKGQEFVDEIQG

With `CN[C@@H](C)C(=O)N[C@H](C(=O)N1CCC[C@H]1c1nc(C(=O)c2cccc(OCCOCCOCCOCC(=O)N3CCN(c4cc(Nc5ncc(C(=O)Nc6c(C)cccc6Cl)s5)nc(C)n4)CC3)c2)cs1)C1CCCCC1` [DAS-IAP], the IC50 was 10 nM.
With `CN[C@@H](C)C(=O)N(C)[C@H](C(=O)N1CCC[C@H]1c1nc(C(=O)c2cccc(OCCOCCOCCOCC(=O)N3CCN(c4cc(Nc5ncc(C(=O)Nc6c(C)cccc6Cl)s5)nc(C)n4)CC3)c2)cs1)C1CCCCC1` [DAS-meIAP] the figure was greater than 1000 nM.
